Patent US20020028836A1, “Potassium channel openers” (priority 2000, published 2002)
Like-named read-outs stand apart in the source and are kept apart here.

Legend:
[1] = test system: primary cultured guinea-pig urinary bladder (GPB) cells; test: Membrane hyperpolarization (MHP) assay, DiBAC(4)3 / FLIPR; format: cell-based; details: for EC50: concentration that elicits 50% of the maximal response for the test sample; for Emax / Maximal Response (% P1075): maximal steady-state hyperpolarization, normalized to response with 10 μM P1075 (100%)
Protocol: Compounds were evaluated for potassium channel opening activity using primary cultured guinea-pig urinary bladder (GPB) cells.
For the preparation of urinary bladder smooth muscle cells, urinary bladders were removed from male guinea-pigs (Hartley, Charles River, Wilmington, Mass.) weighing 300-400 g and placed in ice-cold Ca^2+-free Krebs solution (Composition, mM: KCl, 2.7; KH2PO4, 1.5; NaCl, 75; Na2HPO4, 9.6; Na2HPO4.7H2O, 8; MgSO4, 2; glucose, 5; HEPES, 10; pH 7.4). Cells were isolated by enzymatic dissociation as previously described with minor modifications (Klockner, U. and Isenberg, G., Pflugers Arch. (1985), 405, 329-339), hereby incorporated by reference. The bladder was cut into small sections and incubated in 5 mL of the Kreb's solution containing I mg/mL collagenase (Sigma, St. Louis, Mo.) and 0.2 mg/mL pronase (Calbiochem, La Jolla, Calif.) with continuous stirring in a cell incubator for 30 minutes. The mixture was then centrifuged at 1300×g for 5 minutes, and the pellet resuspended in Dulbecco's PBS (GIBCO, Gaithersburg, Md.) and recentrifuged to remove residual enzyme. The cell pellet was resuspended in 5 mL growth media (composition: Dulbecco's modified Eagle's medium supplemented with 10% fetal bovine serum, 100 units/mL penicillin, 100 units/mL streptomycin and […] amphotericin B) and further dissociated by pipetting the suspension through a flame-polished Pasteur pipette and passing it through a polypropylene mesh membrane (Spectrum, Houston, Tex.). The cell density was adjusted to 100,000 cells/mL by resuspension in growth media. Cells were plated in clear-bottomed black 96-well plates (Packard) for membrane potential studies at a density of 20,000 cells/well and maintained in a cell incubator with 90% air: 10% CO2 until confluent. Cells were confirmed to be of smooth muscle type by cytoskeletal staining using a monoclonal mouse anti human-α-smooth muscle actin (Biomeda, Foster City, Calif.).
Functional activity at potassium channels was measured by evaluating changes in membrane potential using the bis-oxonol dye DiBAC(4) (Molecular Probes) in a 96-well cell-based kinetic assay system, Fluorescent Imaging Plate Reader (FLIPR) (K. S. Schroeder et al., J. Biomed. Screen., v. 1 pp. 75-81 (1996)), hereby incorporated by reference. DiBAC(4)3 is an anionic potentiometric probe which partitions between cells and extracellular solution in a membrane potential-dependent manner. With increasing membrane potential (for example, K^+ depolarization), the probe further partitions into the cell; this is measured as an increase in fluorescence due to dye interaction with intracellular lipids and proteins. Conversely, decreasing membrane potential (hyperpolarization by potassium channel openers) evokes a decrease in fluorescence.
Confluent guinea-pig urinary bladder cells cultured in black clear-bottomed 96-well plates were rinsed twice with […] assay buffer (composition, mM: HEPES, 20; NaCl, 120; KCl, 2; CaCl2, 2; MgCl2, 1; glucose, 5; pH 7.4 at 25° C.) containing 5 μM DiBAC(4)3 and incubated with […] of the buffer in a cell incubator for 30 minutes at 37° C. to ensure dye distribution across the membrane. After recording the baseline fluorescence for 5 minutes, the reference or test compounds, prepared at 10 times the concentration in the assay buffer, were added directly to the wells. Changes in fluorescence were monitored for an additional 25 minutes. Hyperpolarization responses were corrected for any background noise and were normalized to the response observed with 10 μM of the reference compound P1075 (assigned as 100%), a potent opener of smooth muscle KATP channels (Quast et al., Mol. Pharmacol., v. 43 pp. 474-481 (1993)), hereby incorporated by reference.
Routinely, five concentrations of P1075 or test compounds (log or half-log dilutions) were evaluated and the maximal steady-state hyperpolarization values (expressed as % relative to P1075) plotted as a function of concentration. […]

[2] = test system: tissue strips obtained from Landrace pig bladders; test: Functional potassium channel opening activity in isolated bladder strips (field-stimulated twitch); details: for Index: ED50 for P1075 divided by ED50 for the test agonist in a given tissue, averaged; for EC50: amount of agent necessary to cause 50% of the agent's maximal response, read-out: ED50 (the source's name); for Emax / Efficacy (% P1075): maximal efficacy relative to P1075, field stimulation 0.05 Hz, 0.5 ms, 20 volts
Protocol: Compounds were evaluated for functional potassium channel opening activity using tissue strips obtained from Landrace pig bladders.
Landrace pig bladders were obtained from female Landrace pigs of 9-30 kg. Landrace pigs were euthanized with an intraperitoneal injection of pentobarbital solution, Somlethal®, J. A. Webster Inc., Sterling, Mass. The entire bladder was removed and immediately placed into Krebs Ringer bicarbonate solution (composition, mM: NaCl, 120; NaHCO3, 20; dextrose, 11; KCl, 4.7; CaCl2, 2.5; MgSO4, 1.5; KH2PO4, 1.2; K2EDTA, 0.01, equilibrated with 5% CO2/95% O2pH 7.4 at 37° C.). Propranolol (0.004 mM) was included in all of the assays to block β-adrenoceptors. The trigonal and dome portions were discarded. Strips 3-5 mm wide and 20 mm long were prepared from the remaining tissue cut in a circular fashion. The mucosal layer was removed. One end was fixed to a stationary glass rod and the other to a Grass FT03 transducer at a basal preload of 1.0 gram. Two parallel platinum electrodes were included in the stationary glass rod to provide field stimulation of 0.05 Hz, 0.5 milli-seconds at 20 volts. This low frequency stimulation produced a stable twitch response of 100-500 centigrams. Tissues were allowed to equilibrate for at least 60 minutes and primed with 80 mM KCl. A control concentration response curve (cumulative) was generated for each tissue using the potassium channel opener P1075 as the control agonist. […] After a 60 minute rinsing period, a concentration response curve (cumulative) was generated for the test agonist in the same fashion as that used for the control agonist P1075. The maximal efficacy of each compound (expressed as % relative to P1075) is reported. The amount of agent necessary to cause 50% of the agent's maximal response (ED50) was calculated using “ALLFIT” (DeLean et al., Am. J. Physiol., 235, E97 (1980)), hereby incorporated by reference. Agonist potencies were also expressed as an index relative to P1075. The index was calculated by dividing the ED50 for P1075 by the ED50 for the test agonist in a given tissue. Each tissue was used for only one test agonist, and the indices obtained from each tissue were averaged to provide an average index of potency.

SMILES	EC50 ([1]; Cavia porcellus) [nM]	EC50 ([2]; Sus scrofa) [nM]	EC50 [1] [nM]	EC50 [2] [nM]	Emax ([1]; Cavia porcellus) [%]	Index [2]	Emax ([2]; Sus scrofa) [%]	Maximal Response (% P1075) [1] [% P1075]	Efficacy (% P1075) [2] [% P1075]
Cc1ccc(C(=O)N[C@@H](NC(=S)Nc2cccnc2)C(C)(C)C)cc1 [Example 24, N-((1S)-2,2-dimethyl-1-{[(3-pyridinylamino)carbothioyl]amino}propyl)-4-methylbenzamide]	80	17000			93	0.007	100		
Cc1ccc(C(=O)NC(NC(=NC#N)Nc2ccccc2F)C(Cl)(Cl)Cl)cc1 (stereo not drawn) [Example 47, 4-methyl-N-(2,2,2-trichloro-1-{[(cyanoimino)(2-fluoroanilino)methyl]amino}ethyl)benzamide]	60	36000			98	0.019	67		
CCC(CC)(CCC#N)C(NC(=O)c1ccc(Cl)cc1)NC(=NC#N)Nc1cccnc1 (single isomer, unassigned; (+)) [Example 87, (+) 4-chloro-N-(4-cyano-1-{[(cyanoimino)(3-pyridinylamino)methyl]amino}-2,2-diethylbutyl)benzamide]			520	7600		0.02		85	67
CCCCC(C)(C)C(NC(=O)c1ccc(Cl)cc1)NC(=NC#N)Nc1cccnc1 (stereo not drawn) [Example 94, 4-chloro-N-(1-{[(cyanoimino)(3-pyridinylamino)methyl]amino}-2,2-dimethylhexyl)benzamide]	160				82				
N#CN=C(Nc1cccnc1)NC(NC(=O)c1ccc(Cl)cc1)C(Cl)(Cl)Cl (stereo not drawn) [Example 45, 4-chloro-N-(2,2,2-trichloro-1-{[(cyanoimino)(3-pyridinylamino)methyl]amino}ethyl)benzamide]	40				92				
C=CCOCC(CC)(COCC=C)C(NC(=O)c1ccc(Cl)cc1)NC(=NC#N)Nc1cccnc1 (stereo not drawn) [Example 96, N-(2,2-bis[(allyloxy)methyl]-1-{[(cyanoimino)(3-pyridinylamino)methyl]amino}butyl)-4-chlorobenzamide]	240				93				
CC1=C(CC(NC(=O)c2ccc(Cl)cc2)NC(=NC#N)Nc2cccnc2)C(C)(C)CCC1 (stereo not drawn) [Example 66, 4-chloro-N-[1-{[(cyanoimino)(3-pyridinylamino)methyl]amino}-2-(2,6,6-trimethyl-1-cyclohexen-1-yl)ethyl]benzamide]			82		79				

Further lines, with some results ahead:

EC50 ([1]; Cavia porcellus) [nM]	EC50 ([2]; Sus scrofa) [nM]	EC50 [1] [nM]	EC50 [2] [nM]	SMILES	Emax ([1]; Cavia porcellus) [%]	Index [2]	Emax ([2]; Sus scrofa) [%]	Maximal Response (% P1075) [1] [% P1075]	Efficacy (% P1075) [2] [% P1075]
90	28000			O=C(NC(NC(=S)Nc1ccccc1)C(F)(F)F)c1ccc(Cl)cc1 (stereo not drawn) [Example 20, N-{1-[(anilinocarbothioyl)amino]-2,2,2-trifluoroethyl}-4-chlorobenzamide]	85	0.011	84		
		4600	14000	Cc1ccc(C(=O)NC(NC(=NC#N)Nc2cccnc2)C(C)(C)C)cc1 (single isomer, unassigned; (-)) [Example 57, (−) N-(1-{[(cyanoimino)(3-pyridinylamino)methyl]amino}-2,2-dimethylpropyl)-4-methylbenzamide]		0.007		80	85
90	8000			Cc1ccc(C(=O)NC(NC(=S)Nc2cccc(F)c2F)C(F)(F)F)cc1 (stereo not drawn) [Example 18, N-(1-{[(2,3-difluoroanilino)carbothioyl]amino}-2,2,2-trifluoroethyl)-4-methylbenzamide]	123	0.020	97		
90	12000			Cc1ccc(C(=O)NC(NC(=S)Nc2c(F)cccc2F)C(F)(F)F)cc1 (stereo not drawn) [Example 17, N-(1-{[(2,6-difluoroanilino)carbothioyl]amino}-2,2,2-trifluoroethyl)-4-methylbenzamide]	109	0.006	100		
250	1800			C=CC(C)(C)CC(NC(=O)c1ccc(Cl)cc1)NC(=NC#N)Nc1cccnc1 (stereo not drawn) [Example 92, 4-chloro-N-(1-{[(cyanoimino)(3-pyridinylamino)methyl]amino}-3,3-dimethyl-4-pentenyl)benzamide]	71	0.047	76		
		100	3400	CC1=C(CC(NC(=O)c2ccc(Cl)cc2)NC(=NC#N)Nc2cccnc2)C(C)(C)CCC1 (single isomer, unassigned; (-)) [Example 89, (−) 4-chloro-N-[1-{[(cyanoimino)(3-pyridinylamino)methyl]amino}-2-(2,6,6-trimethyl-1-cyclohexen-1-yl)ethyl]benzamide]		0.120		88	41
70	1000			Cc1ccc(C(=O)NC(NC(=S)Nc2cccc([N+](=O)[O-])c2)C(C)(C)C)cc1 (stereo not drawn) [Example 25, N-(2,2-dimethyl-1-{[(3-nitroanilino)carbothioyl]amino}propyl)-4-methylbenzamide]	103	0.078	100		
		130		CCC(CC)(CCC#N)C(NC(=O)c1ccc(Cl)cc1)NC(=NC#N)Nc1cccnc1 (stereo not drawn) [Example 65, 4-chloro-N-(4-cyano-1-{[(cyanoimino)(3-pyridinylamino)methyl]amino}-2,2-diethylbutyl)benzamide]	89				
